Biological target: C-Raf FL (full length CRAF with Y340E and Y341E activating mutations, co-expressed with h14-3-3 zeta) (Homo sapiens (Human), UniProt P04049, Y340E/Y341E)
Test: In vitro Raf activity determination, AlphaScreen p-MEK readout, c-Raf (C-Raf FL)
Format: biochemical
Conditions: c-Raf approximately 4 nM, ATP 1 μM, pre-incubation 60 minutes, reaction 1 hour
In short: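 Phosphorylation of kinase-dead biotinylated MEK1 (~10 nM) by C-Raf FL (~4 nM) read by AlphaScreen luminescence with anti-phospho-MEK1/2 after EDTA stop. ATP was 1 μM, with a 1 h reaction at room temperature. Compounds were pre-incubated with enzyme and substrate for 60 min in Tris/MgCl2 buffer, pH 7.5.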

C-Raf FL (full length CRAF with Y340E and Y341E activating mutations, co-expressed with h14-3-3 zeta), sequence (P04049 whole entry Y340E/Y341E): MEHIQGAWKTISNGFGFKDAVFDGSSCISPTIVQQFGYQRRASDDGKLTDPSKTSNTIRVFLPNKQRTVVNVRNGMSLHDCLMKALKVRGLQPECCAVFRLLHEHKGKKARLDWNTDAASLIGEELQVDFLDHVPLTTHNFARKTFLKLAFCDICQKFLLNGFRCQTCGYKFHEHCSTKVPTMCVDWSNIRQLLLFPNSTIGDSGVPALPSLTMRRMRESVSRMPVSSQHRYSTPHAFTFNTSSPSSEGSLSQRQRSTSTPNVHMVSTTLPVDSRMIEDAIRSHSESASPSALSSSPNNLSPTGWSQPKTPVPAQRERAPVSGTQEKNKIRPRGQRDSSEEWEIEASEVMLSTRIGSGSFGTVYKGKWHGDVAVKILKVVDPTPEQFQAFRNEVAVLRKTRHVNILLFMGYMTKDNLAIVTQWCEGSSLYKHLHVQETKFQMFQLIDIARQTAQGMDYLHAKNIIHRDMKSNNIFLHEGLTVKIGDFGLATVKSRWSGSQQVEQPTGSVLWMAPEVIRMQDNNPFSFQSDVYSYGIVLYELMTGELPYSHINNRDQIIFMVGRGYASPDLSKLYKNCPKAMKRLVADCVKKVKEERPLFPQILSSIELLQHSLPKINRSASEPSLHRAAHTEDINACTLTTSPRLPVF
C-Raf FL (full length CRAF with Y340E and Y341E activating mutations, co-expressed with h14-3-3 zeta), sequence (P63104 whole entry partner): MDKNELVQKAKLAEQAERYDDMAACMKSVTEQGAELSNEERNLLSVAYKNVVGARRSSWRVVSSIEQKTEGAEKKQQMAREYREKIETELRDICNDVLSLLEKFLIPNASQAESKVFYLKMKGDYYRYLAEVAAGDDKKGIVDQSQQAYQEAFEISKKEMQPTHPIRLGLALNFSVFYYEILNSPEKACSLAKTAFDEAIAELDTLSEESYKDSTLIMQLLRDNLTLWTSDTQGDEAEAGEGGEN

| Compound | IC50 [nM] |
| --- | --- |
| Cc1ccc(NC(=O)c2ccnc(C(C)(F)F)c2)cc1-c1cc2c(nn1)OC(C)(C)[C@H]1COCCN21 [Example 138, (R)-2-(1,1-Difluoroethyl)-N-(3-(6,6-dimethyl-6a,7,9,10-tetrahydro-6H-[1,4]oxazino[4,3-d]pyridazino[3,4-b][1,4]oxazin-2-yl)-4-methylphenyl)isonicotinamide] | 0.59 |
| Cc1ccc(NC(=O)c2cncc(C(F)(F)F)c2)cc1-c1cnc2c(c1)C1(C)CCOCCC1C(=O)N2CCO (single isomer, unassigned) [Example 358, N-(3-((5a,11b-trans)-7-(2-hydroxyethyl)-11b-methyl-6-oxo-1,2,4,5,5a,6,7,11b-octahydrooxepino[4,5-c][1,8]naphthyridin-10-yl)-4-methylphenyl)-5-(trifluoromethyl)nicotinamide] | 0.1 |
| Cc1ccc(NC(=O)c2ccnc(C(F)(F)F)c2)cc1-c1ccc2c(c1)N1CCOCC1CC2 (racemic) [Example 21, (rac)-N-(3-(1,2,4,4a,5,6-hexahydro-[1,4]oxazino[4,3-a]quinolin-9-yl)-4-methylphenyl)-2-(trifluoromethyl)isonicotinamide] | 0.0012 |
| CCN1C[C@@H]2COCC[C@H]2c2cc(-c3cc(NC(=O)c4ccnc(C(C)(F)F)c4)ccc3C)cnc21 [Example 292, 2-(1,1-difluoroethyl)-N-(3-((4aR, 10bR)-6-ethyl-2,4,4a,5,6,10b-hexahydro-1H-pyrano[3,4-c][1,8]naphthyridin-9-yl)-4-methylphenyl) isonicotinamide] | 0.1 |
| Cc1ccc(NC(=O)c2ccnc(C(C)(F)F)c2)cc1-c1cnc2c(c1)N1CCOC[C@@H]1[C@@](C#N)(CF)C2 [Example 517, N-(3-((4aS,5S)-5-cyano-5-(fluoromethyl)-1,2,4,4a,5,6-hexahydro-[1,4]oxazino[4,3-a][1,5]naphthyridin-9-yl)-4-methyphenyl)-2-(1,1-difluoroethyl)iso-nicotinamide] | 0.1 |
| Cc1ccc(NC(=O)c2cncc(C(F)(F)F)c2)cc1-c1cnc2c(c1)N1CCOC[C@H]1CC(=O)N2CCO [Example 329, (R)-N-(3-(7-(2-hydroxyethyl)-6-oxo-2,4,4a,5,6,7-hexahydro-1H-[1,4]oxazino[4,3-d]pyrido[2,3-b][1,4]diazepin-10-yl)-4-methylphenyl)-5-(trifluoromethyl) nicotinamide] | 0.2 |
| Cc1ccc(NC(=O)c2cnnc(C(F)(F)F)c2)cc1-c1cc(F)c2c(c1)N1CCOC[C@@H]1[C@](F)(CO)C2 [Example 439, N-(3-((4aR,5S)-5,7-difluoro-5-(hydroxymethyl)-1,2,4,4a,5,6-hexahydro-[1,4]oxazino[4,3-a]quinolin-9-yl)-4-methylphenyl)-6-(trifluoromethyl) pyridazine-4-carboxamide] | 0.1 |
| Cc1ccc(NC(=O)c2ccnc(C(C)(F)F)c2)cc1-c1cnc2c(c1)N1CCOC[C@H]1C(C)(C)[C@@H]2O (racemic) [Example 160, rac-cis-2-(1,1-difluoroethyl)-N-(3-(6-hydroxy-5,5-dimethyl-1,2,4,4a,5,6-hexahydro-[1,4]oxazino[4,3-a][1,5]naphthyridin-9-yl)-4-methylphenyl)isonicotinamide] | 0.027 |
| Cc1ccc(NC(=O)c2ccnc(C(F)(F)F)c2)cc1-c1cnc2c(c1)N1CCOCC1C(CO)C2 (racemic) [Example 123, rac-cis-N-(3-(5-(hydroxymethyl)-1,2,4,4a,5,6-hexahydro-[1,4]oxazino[4,3-a][1,5]naphthyridin-9-yl)-4-methylphenyl)-2-(trifluoromethyl)isonicotinamide] | 0.0052 |
| Cc1ccc(NC(=O)c2ccnc(C(F)(F)F)c2F)cc1-c1cnc2c(c1)C1C3COCC3C1C(=O)N2CCO (stereo not shown) [Example 283, 3-fluoro-N-(3-(5-(2-hydroxyethyl)-6-oxo-5,6,6a,6b,7,9,9a,9b-octahydrofuro[3′,4′: 3,4]cyclobuta[1,2-c][1,8]naphthyridin-2-yl)-4-methylphenyl)-2-(trifluoromethyl)-2-isonicotinamide] | 0.2 |

Source: patent US10377770B2 (Novartis AG, priority 2015, dated 2019)
